# Results as given in patent US12605396B2, “Methods of treating mastitis with an orthosomycin antimicrobial compound” (Intervet Inc., priority 2020, dated 2026).
# Values joined by “and” are separate entries in the source; they are usually repeats but may differ in a detail not shown here. Equal values may be shown once. “Also recorded” adds a separate entry of the source. Read-outs that look alike come from different tables or passages of the source.
# Experiments:
# [1] = system: coa-neg Staph.; experiment: MIC in bacteriological broth (CLSI VET01-A4); format: cell-based, coagulase-negative staphylococci
# Protocol: (§1) Minimal inhibitory concentrations (MIC) were determined in bacteriological broth according to Clinical and Laboratory Standard Institute (CLSI) guideline VET01-A4 [1]. The MIC results were interpreted according to the CLSI document VET01-S3 [2].
# [2] = system: Strep. agalactiae; experiment: MIC in bacteriological broth (CLSI VET01-A4); format: cell-based, Streptococcus agalactiae
# Protocol: as §1
# [3] = system: mastitis-causing pathogens; experiment: Antimicrobial activity against mastitis-causing pathogens (overall statement); format: cell-based; details: broth-dilution assay and milk
# Protocol: as §1
# (§2) For MIC determination in milk, the in vitro activity was determined by measuring the minimum inhibitory concentrations (MIC) according to CLSI document VET01-A4 [1] using full cream UHT milk as test medium. About 2 h before the end of the incubation 10 μL of alamar Blue® was added to each well of the microdilution trays, resulting in a final concentration of 10% of alamar Blue®. Blue color of the medium indicated no living cells (no bacterial growth) red/pink to white color of the medium indicated living cells (bacterial growth). The MIC results were interpreted according to the CLSI document VET01-S3 [2].
# [4] = system: S. uberis; experiment: MIC in bacteriological broth (CLSI VET01-A4); format: cell-based, Streptococcus uberis
# Protocol: as §1
# [5] = system: Truep. pyogenes; experiment: MIC in bacteriological broth (CLSI VET01-A4); format: cell-based, Trueperella pyogenes
# Protocol: as §1
# [6] = system: S. aureus; experiment: MIC in full cream UHT milk with alamar Blue; format: cell-based, Staphylococcus aureus; details: for Distribution of MIC values: isolates with MIC 0.125 μg/ml / Distribution of MIC values: isolates with MIC 0.25 μg/ml / Distribution of MIC values: isolates with MIC 0.5 μg/ml / Distribution of MIC values: isolates with MIC 1 μg/ml / Distribution of MIC values: isolates with MIC 2 μg/ml / Distribution of MIC values: isolates with MIC 4 μg/ml / Distribution of MIC values: isolates with MIC 8 μg/ml / Distribution of MIC values: isolates with MIC 16 μg/ml / Distribution of MIC values: isolates with MIC 32 μg/ml / Distribution of MIC values: isolates with MIC 64 μg/ml / Distribution of MIC values: isolates with MIC >64 μg/ml / Distribution of MIC values: isolates with MIC ≤0.063 μg/ml / MIC90: S. aureus (n = 20); for S. aureus MIC, milk: individual S. aureus isolates, in µg/mL
# Protocol: as §2
# [7] = system: Strep. dysgalactiae; experiment: MIC in bacteriological broth (CLSI VET01-A4); format: cell-based, Streptococcus dysgalactiae
# Protocol: as §1
# [8] = system: S. aureus; experiment: MIC in bacteriological broth (CLSI VET01-A4); format: cell-based, Staphylococcus aureus; details: for S. aureus MIC, CAMHB: bacteriological broth (CAMHB), individual S. aureus isolates; for Activity against S. aureus isolates in bacteriological broth: different S. aureus isolates
# Protocol: as §1
# [9] = broth, of 15 coa-neg Staph. isolates
# [10] = broth, of 15 Strep. agalactiae isolates
# [11] = broth, of 15 Strep. uberis isolates
# [12] = broth, of 15 Strep. dysgalactiae isolates
# [13] = broth, of 15 Staph. aureus isolates
smiles,measurement,setting,value
COC[C@H]1O[C@@H](O[C@@H]2OC[C@@H]3O[C@@]4(OC[C@@H](OC(=O)c5c(C)cc(O)cc5O)[C@@H]5OCO[C@H]54)O[C@H]3[C@H]2O)[C@@H](OC)[C@@H](O)C1O[C@@H]1O[C@H](C)[C@H](OC)[C@H](OC2O[C@H](C)[C@H]3O[C@]4(C[C@@H](O)[C@H](O[C@H]5C[C@@H](O[C@H]6C[C@](C)([N+](=O)[O-])[C@@H](OC)[C@H](C)O6)[C@H](OC(=O)c6c(C)c(Cl)c(O)c(Cl)c6OC)[C@@H](C)O5)[C@@H](C)O4)O[C@]3(C)[C@@H]2O)[C@H]1O (stereo partly shown) [evernimicin],MIC50,"[1]; bacteriological broth, 15 coa-neg Staph. isolates tested, read-out: MIC50",0.5 µg/mL
same,MIC90,"[1]; bacteriological broth, 15 coa-neg Staph. isolates tested, read-out: MIC90",1 µg/mL
same,MIC,"[1]; bacteriological broth, 15 coa-neg Staph. isolates tested, read-out: Maximum MIC",8 µg/mL
same,MIC,"[1]; bacteriological broth, 15 coa-neg Staph. isolates tested, read-out: Minimum MIC",0.25 µg/mL
same,Number of isolates with MIC 0.25 μg/mL,[1]; [9],6
same,Number of isolates with MIC 0.5 μg/mL,[1]; [9],6
same,Number of isolates with MIC 1 μg/mL,[1]; [9],2
same,Number of isolates with MIC 8 μg/mL,[1]; [9],1
same,MIC50,"[2]; Streptococcus agalactiae, bacteriological broth, 15 Strep. agalactiae isolates tested, read-out: MIC50",0.125 µg/mL
same,MIC90,"[2]; Streptococcus agalactiae, bacteriological broth, 15 Strep. agalactiae isolates tested, read-out: MIC90",0.25 µg/mL
same,MIC,"[2]; Streptococcus agalactiae, bacteriological broth, 15 Strep. agalactiae isolates tested, read-out: Maximum MIC",0.25 µg/mL
same,MIC,"[2]; Streptococcus agalactiae, bacteriological broth, 15 Strep. agalactiae isolates tested, read-out: Minimum MIC",0.125 µg/mL
same,Number of isolates with MIC 0.125 μg/mL,[2]; [10],12
same,Number of isolates with MIC 0.25 μg/mL,[2]; [10],3
same,Antimicrobial activity against mastitis-causing pathogens,[3],Good antimicrobial activity
same,MIC50,"[4]; Streptococcus uberis, bacteriological broth, 15 Strep. uberis isolates tested, read-out: MIC50",0.25 µg/mL
same,MIC90,"[4]; Streptococcus uberis, bacteriological broth, 15 Strep. uberis isolates tested, read-out: MIC90",0.5 µg/mL
same,MIC,"[4]; Streptococcus uberis, bacteriological broth, 15 Strep. uberis isolates tested, read-out: Maximum MIC",0.5 µg/mL
same,MIC,"[4]; Streptococcus uberis, bacteriological broth, 15 Strep. uberis isolates tested, read-out: Minimum MIC",0.125 µg/mL
same,Number of isolates with MIC 0.125 μg/mL,[4]; [11],2
same,Number of isolates with MIC 0.25 μg/mL,[4]; [11],10
same,Number of isolates with MIC 0.5 μg/mL,[4]; [11],3
same,MIC50,"[5]; Trueperella pyogenes, bacteriological broth, 15 Truep. pyogenes isolates tested, read-out: MIC50",≤ 0.063 µg/mL
same,MIC90,"[5]; Trueperella pyogenes, bacteriological broth, 15 Truep. pyogenes isolates tested, read-out: MIC90",≤ 0.063 µg/mL
same,MIC,"[5]; Trueperella pyogenes, bacteriological broth, 15 Truep. pyogenes isolates tested, read-out: Maximum MIC",≤ 0.063 µg/mL
same,MIC,"[5]; Trueperella pyogenes, bacteriological broth, 15 Truep. pyogenes isolates tested, read-out: Minimum MIC",≤ 0.063 µg/mL
same,Number of isolates with MIC ≤0.063 μg/mL,"[5]; broth, of 15 Truep. pyogenes isolates",15
same,MIC90 against S. aureus compared with MIC90 of penicillin G,[6],identical
same,Distribution of MIC values: isolates with MIC 0.125 μg/ml,[6],0
same,Distribution of MIC values: isolates with MIC 0.25 μg/ml,[6],0
same,Distribution of MIC values: isolates with MIC 0.5 μg/ml,[6],0
same,Distribution of MIC values: isolates with MIC 1 μg/ml,[6],0
same,Distribution of MIC values: isolates with MIC 2 μg/ml,[6],0
same,Distribution of MIC values: isolates with MIC 4 μg/ml,[6],4
same,Distribution of MIC values: isolates with MIC 8 μg/ml,[6],11
same,Distribution of MIC values: isolates with MIC 16 μg/ml,[6],5
same,Distribution of MIC values: isolates with MIC 32 μg/ml,[6],0
same,Distribution of MIC values: isolates with MIC 64 μg/ml,[6],0
same,Distribution of MIC values: isolates with MIC >64 μg/ml,[6],0
same,Distribution of MIC values: isolates with MIC ≤0.063 μg/ml,[6],0
same,MIC90,"[6]; Staphylococcus aureus, read-out: MIC90",16 µg/mL
same,MIC50,"[7]; Streptococcus dysgalactiae, bacteriological broth, 15 Strep. dysgalactiae isolates tested, read-out: MIC50",0.125 µg/mL
same,MIC90,"[7]; Streptococcus dysgalactiae, bacteriological broth, 15 Strep. dysgalactiae isolates tested, read-out: MIC90",0.25 µg/mL
same,MIC,"[7]; Streptococcus dysgalactiae, bacteriological broth, 15 Strep. dysgalactiae isolates tested, read-out: Maximum MIC",0.25 µg/mL
same,MIC,"[7]; Streptococcus dysgalactiae, bacteriological broth, 15 Strep. dysgalactiae isolates tested, read-out: Minimum MIC",0.125 µg/mL
same,Number of isolates with MIC 0.125 μg/mL,[7]; [12],11
same,Number of isolates with MIC 0.25 μg/mL,[7]; [12],4
same,MIC50,"[8]; Staphylococcus aureus, bacteriological broth, 15 Staph. aureus isolates tested, read-out: MIC50",0.5 µg/mL
same,MIC90,"[8]; Staphylococcus aureus, bacteriological broth, 15 Staph. aureus isolates tested, read-out: MIC90",0.5 µg/mL
same,MIC,"[8]; Staphylococcus aureus, bacteriological broth, 15 Staph. aureus isolates tested, read-out: Maximum MIC",0.5 µg/mL
same,MIC,"[8]; Staphylococcus aureus, bacteriological broth, 15 Staph. aureus isolates tested, read-out: Minimum MIC",0.125 µg/mL
same,Number of isolates with MIC 0.125 μg/mL,[8]; [13],1
same,Number of isolates with MIC 0.25 μg/mL,[8]; [13],2
same,Number of isolates with MIC 0.5 μg/mL,[8]; [13],12
"CC[C@@]1([C@@H]2O[C@@H]([C@H]3O[C@@](O)(CO)[C@H](C)C[C@@H]3C)C[C@@H]2C)CC[C@H]([C@]2(C)CC[C@]3(C[C@H](O)[C@@H](C)[C@@H]([C@@H](C)[C@@H](OC)[C@H](C)C(=O)O)O3)O2)O1 [Monensin, monensin]",Activity in milk,[6],no activity; also recorded: lost any activity
same,"S. aureus MIC, milk",[6],>32
same,"S. aureus MIC, CAMHB",[8],0.25 (2×) and 2 (6×)
same,Activity against S. aureus isolates in bacteriological broth,[8]; bacteriological broth,active
"CC[C@@H](C(=O)[C@@H](C)[C@@H](O)[C@H](C)[C@@H]1O[C@@H]([C@@H](CC)C(=O)O)CC[C@@H]1C)[C@H]1O[C@]2(C=C[C@@H](O)[C@]3(CC[C@@](C)([C@H]4CC[C@](O)(CC)[C@H](C)O4)O3)O2)[C@H](C)C[C@@H]1C [Salinomycin, salinomycin]",Activity in milk,[6],no activity; also recorded: lost any activity
same,"S. aureus MIC, milk",[6],>32
same,"S. aureus MIC, CAMHB",[8],0.25 (2×) and 1 and 0.5 (5×)
same,Activity against S. aureus isolates in bacteriological broth,[8]; bacteriological broth,active
"CC[C@@H](C(=O)[C@@H](C)[C@@H](O)[C@H](C)CCc1ccc(C)c(O)c1C(=O)O)[C@H]1O[C@](CC)([C@H]2CC[C@](O)(CC)[C@H](C)O2)C[C@@H]1C [Lasalocid, lasalocid]",Activity in milk,[6],no activity; also recorded: lost any activity
same,"S. aureus MIC, milk",[6],>32
same,"S. aureus MIC, CAMHB",[8],0.25 (3×) and 1 (4×) and 0.5
same,Activity against S. aureus isolates in bacteriological broth,[8]; bacteriological broth,active
"CC1(C)S[C@@H]2[C@H](NC(=O)Cc3ccccc3)C(=O)N2[C@H]1C(=O)O [Penicillin G, penicillin G]",Distribution of MIC values: isolates with MIC 0.125 μg/ml,[6],0
same,Distribution of MIC values: isolates with MIC 0.25 μg/ml,[6],0
same,Distribution of MIC values: isolates with MIC 0.5 μg/ml,[6],0
same,Distribution of MIC values: isolates with MIC 1 μg/ml,[6],1
same,Distribution of MIC values: isolates with MIC 2 μg/ml,[6],0
same,Distribution of MIC values: isolates with MIC 4 μg/ml,[6],0
same,Distribution of MIC values: isolates with MIC 8 μg/ml,[6],2
same,Distribution of MIC values: isolates with MIC 16 μg/ml,[6],1
same,Distribution of MIC values: isolates with MIC 32 μg/ml,[6],1
same,Distribution of MIC values: isolates with MIC 64 μg/ml,[6],0
same,Distribution of MIC values: isolates with MIC >64 μg/ml,[6],1
same,Distribution of MIC values: isolates with MIC ≤0.063 μg/ml,[6],14
same,MIC90,[6],16 µg/mL
